Results from patent US9725442B2, “Heterocyclic derivative having PGD2 receptor antagonist activity” (Shionogi & Co., Ltd., priority 2011, dated 2017).
Read-outs that look alike come from different tables or passages of the source.

How the values were obtained:
CRTH2 = CRTH2 (Homo sapiens (Human), UniProt Q9Y5Y4); assay: CRTH2 receptor binding inhibitory activity ([3H]-PGD2 displacement, membranes of CRTH2-expressing K562 cell); conditions: [3H]-PGD2 displacement, membrane of CRTH2-expressing K562 cell, read-out: Ki
Chain of CRTH2 (Q9Y5Y4 whole entry): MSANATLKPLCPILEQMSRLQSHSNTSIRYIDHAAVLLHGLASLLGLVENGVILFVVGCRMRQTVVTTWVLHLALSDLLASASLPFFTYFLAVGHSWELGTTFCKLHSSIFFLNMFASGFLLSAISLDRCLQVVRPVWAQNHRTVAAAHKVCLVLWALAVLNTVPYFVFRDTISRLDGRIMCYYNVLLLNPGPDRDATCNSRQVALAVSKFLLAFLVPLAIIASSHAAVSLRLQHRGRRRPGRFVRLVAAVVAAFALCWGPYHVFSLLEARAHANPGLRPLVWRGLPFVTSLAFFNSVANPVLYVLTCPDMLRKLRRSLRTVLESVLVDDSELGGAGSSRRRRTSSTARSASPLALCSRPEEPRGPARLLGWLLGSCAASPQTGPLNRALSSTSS
Method in brief: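 CRTH2-expressing K562 membranes (20 μg/well) in 50 mM Tris/HCl pH 7.4 with 10 mM MgCl2 were incubated with [3H]-PGD2 for 60 min at room temperature, then filtered.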

Human DP1 receptor = Human DP1 receptor (Homo sapiens (Human), UniProt Q13258); assay: Human DP1 inhibitory activity in DP1-expressing cell (PGD2-induced cAMP); format: cell-based
Chain of Human DP1 receptor (Q13258 whole entry): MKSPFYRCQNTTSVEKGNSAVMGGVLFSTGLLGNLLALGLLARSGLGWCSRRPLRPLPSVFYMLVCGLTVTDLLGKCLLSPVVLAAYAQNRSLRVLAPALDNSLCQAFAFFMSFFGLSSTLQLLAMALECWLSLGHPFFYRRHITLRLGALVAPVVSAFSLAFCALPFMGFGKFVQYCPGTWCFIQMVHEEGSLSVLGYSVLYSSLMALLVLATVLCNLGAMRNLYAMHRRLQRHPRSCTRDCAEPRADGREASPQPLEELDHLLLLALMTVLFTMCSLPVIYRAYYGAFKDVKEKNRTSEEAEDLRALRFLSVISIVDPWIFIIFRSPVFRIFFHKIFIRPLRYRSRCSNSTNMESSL
Description: Compounds were categorized as AA (cAMP is less than 100 nM) and A (cAMP is more than 100 nM and less than 5000 nM) as shown in Table 99 and 100.

[1] = CRTH2 receptor binding, categorized AAAA/AAA
[2] = category of cAMP IC50, human DP1 receptor expressing Jurkut cell

| Ki (CRTH2; [1]) [nM] | IC50 (Human DP1 receptor; [2]) [nM] | Ki (CRTH2) [nM] | IC50 (Human DP1 receptor; IC50 of PGD2 (60 nM)-induced cAMP increase, human DP1 receptor expressing Jurkut cell) [nM] | Compound |
| --- | --- | --- | --- | --- |
| < 100 | < 100 | – | – | C[C@@H]1CN(S(=O)(=O)c2ccc(OC(F)F)cc2)C[C@@H]1n1nc(CC(=O)O)c2ccc(Cl)cc21 [Compound I-134] |
| < 100 | < 100 | – | – | CC(C)Oc1ccc(S(=O)(=O)N2C[C@@H](C)[C@@H](n3nc(CC(=O)O)c4ccc(Cl)cc43)C2)cc1 [Compound I-135] |
| 100 to 5000 | 100 to 5000 | – | – | C[C@H]1CN(S(=O)(=O)c2ccc(OC(F)F)cc2)C[C@H]1n1nc(CC(=O)O)c2ccc(F)cc21 [Compound I-136] |
| < 100 | < 100 | – | – | CCOc1ccc(S(=O)(=O)N2C[C@@H](C)[C@@H](n3nc(CC(=O)O)c4ccc(Cl)cc43)C2)cc1 [Compound I-137] |
| < 100 | 100 to 5000 | 65 | – | CC(C)Oc1ccc(S(=O)(=O)N2C[C@@H](C)[C@@H](n3nc(CC(=O)NS(C)(=O)=O)c4ccc(F)cc43)C2)cc1 [Compound I-138] |
| < 100 | < 100 | 32 | – | CC(C)Oc1ccc(S(=O)(=O)N2C[C@@H](C)[C@@H](n3nc(CC(=O)NC#N)c4ccc(F)cc43)C2)cc1 [Compound I-139] |
| < 100 | < 100 | – | – | COc1ccc(S(=O)(=O)N2C[C@@H](C)[C@@H](n3nc(CC(=O)O)c4ccc(Cl)cc43)C2)cc1 [Compound I-140] |
| < 100 | < 100 | – | – | CCc1ccc(S(=O)(=O)N2C[C@@H](C)[C@@H](n3nc(CC(=O)O)c4ccc(Cl)cc43)C2)cc1 [Compound I-141] |
| < 100 | < 100 | – | – | CCOc1ccc(S(=O)(=O)N2C[C@@H](C)[C@@H](n3nc(CC(=O)O)c4ccc(Cl)cc43)C2)cn1 [Compound I-143] |
| < 100 | 100 to 5000 | 3.1 | – | CC(C)Oc1ccc(S(=O)(=O)N2C[C@@H](C)[C@@H](n3nc(CC(=O)O)c4cccnc43)C2)cc1 [Compound I-145] |
| < 100 | < 100 | – | – | CC(C)Oc1ccc(S(=O)(=O)N2C[C@@H](C)[C@@H](n3nc(CC(=O)O)c4ccc(Cl)cc43)C2)cn1 [Compound I-146] |
| < 100 | < 100 | – | – | CCOc1ccc(S(=O)(=O)N2C[C@@H](C)[C@@H](n3nc(CC(=O)O)c4ccc(F)cc43)C2)c(F)c1 [Compound I-147] |
| < 100 | 100 to 5000 | 5.6 | – | CC(C)Oc1ccc(S(=O)(=O)N2C[C@@H](C)[C@@H](n3cc(CC(=O)O)c4cccnc43)C2)cc1 [Compound I-148] |
| < 100 | 100 to 5000 | 4.8 | – | CC(C)Oc1ccc(S(=O)(=O)N2C[C@@H](C)[C@@H](n3nc(CC(=O)O)c4ccc(F)cc43)C2)nc1 [Compound I-149] |
| < 100 | < 100 | – | – | CCCCOc1ccc(S(=O)(=O)N2C[C@@H](C)[C@@H](n3nc(CC(=O)O)c4ccccc43)C2)cc1 [Compound I-151] |
| < 100 | 100 to 5000 | 56 | – | C[C@@H]1CN(S(=O)(=O)c2cc3ccccc3s2)C[C@@H]1n1nc(CC(=O)O)c2ccccc21 [Compound I-152] |
| < 100 | < 100 | 65 | – | CC1Cc2cc(S(=O)(=O)N3C[C@@H](C)[C@@H](n4nc(CC(=O)O)c5ccccc54)C3)ccc2O1 (some centres unmarked) [Compound I-153] |
| 100 to 5000 | 100 to 5000 | – | – | CCOc1ccc(S(=O)(=O)N2C[C@@H](n3nc(CC(=O)O)c4ccc(F)cc43)[C@@H](C)[C@@H]2C#N)cc1 [Compound I-155] |
| 100 to 5000 | 100 to 5000 | 270 | – | CC(C)Oc1ccc(S(=O)(=O)N2C[C@@H](C)[C@@H](n3nc(Cc4nnn[nH]4)c4ccc(F)cc43)C2)cc1 [Compound I-157] |
| < 100 | 100 to 5000 | – | – | C[C@]1(O)CN(S(=O)(=O)c2ccc(F)cc2)C[C@@H]1n1nc(CC(=O)O)c2ccccc21 [Compound I-158] |
| 100 to 5000 | < 100 | – | – | CCOc1ccc(S(=O)(=O)N2C[C@@H](C)[C@@H](n3nc(CC(=O)O)c4cc(C#N)ccc43)C2)cc1 [Compound I-160] |
| 100 to 5000 | < 100 | – | – | CCOc1ccc(S(=O)(=O)N2C[C@@H](C)[C@@H](n3nc(CC(=O)O)c4cc(Cl)ccc43)C2)cc1 [Compound I-161] |
| 100 to 5000 | < 100 | – | – | CCOc1ccc(S(=O)(=O)N2C[C@@H](C)[C@@H](n3nc(CC(=O)O)c4cc(Cl)ccc43)C2)cn1 [Compound I-162] |
| 100 to 5000 | < 100 | – | – | CC(C)Oc1ccc(S(=O)(=O)N2C[C@@H](C)[C@@H](n3nc(CC(=O)O)c4cc(Cl)ccc43)C2)cc1 [Compound I-163] |
| 100 to 5000 | < 100 | – | – | CC(C)Oc1ccc(S(=O)(=O)N2C[C@@H](C)[C@@H](n3nc(CC(=O)O)c4cc(C#N)c(F)cc43)C2)cc1 [Compound I-167] |
| < 100 | < 100 | – | – | CCOc1ncc(S(=O)(=O)N2C[C@@H](C)[C@@H](n3nc(CC(=O)O)c4ccccc43)C2)s1 [Compound I-168] |

| Ki (CRTH2; [1]) [nM] | IC50 (Human DP1 receptor; [2]) [nM] | Ki (CRTH2) [nM] | IC50 (Human DP1 receptor; IC50 of PGD2 (60 nM)-induced cAMP increase, human DP1 receptor expressing Jurkut cell) [nM] | Compound |
| --- | --- | --- | --- | --- |
| < 100 | < 100 | – | – | CCOc1ccc(S(=O)(=O)N2C[C@@H](C)[C@@H](n3nc(CC(=O)O)c4ccc(F)cc43)C2)s1 [Compound I-169] |
| < 100 | < 100 | – | – | CCOc1ncc(S(=O)(=O)N2C[C@@H](C)[C@@H](n3nc(CC(=O)O)c4ccc(C)cc43)C2)s1 [Compound I-170] |
| < 100 | < 100 | – | – | CCOc1ccc(S(=O)(=O)N2C[C@@H](C)[C@@H](n3nc(CC(=O)O)c4ccc(C)cc43)C2)s1 [Compound I-171] |
| < 100 | < 100 | – | – | CCOc1ccc(S(=O)(=O)N2C[C@@H](C)[C@@H](n3nc(CC(=O)O)c4ccc(C#N)cc43)C2)cc1 [Compound I-172] |
| < 100 | 100 to 5000 | 11 | – | CCOc1ccc(S(=O)(=O)N2C[C@@H](C)[C@@H](n3nc(CC(=O)O)c4ccc(C#N)cc43)C2)cn1 [Compound I-173] |
| < 100 | < 100 | 50 | 99 | CC(C)Oc1ccc(S(=O)(=O)N2C[C@@H](C)[C@@H](n3nc(CC(=O)O)c4cc5c(cc43)OCO5)C2)cc1 [Compound I-174] |
| < 100 | 100 to 5000 | – | – | CCOc1ccc(S(=O)(=O)N2C[C@@H](C)[C@@H](n3nc(CC(=O)O)c4cc5c(cc43)OCO5)C2)cc1 [Compound I-175] |
| < 100 | 100 to 5000 | – | – | CCOc1ccc(S(=O)(=O)N2C[C@@H](C)[C@@H](n3nc(CC(=O)O)c4cc5c(cc43)OCO5)C2)cn1 [Compound I-176] |
| < 100 | 100 to 5000 | – | – | COc1ccc(S(=O)(=O)N2C[C@@H](C)[C@@H](n3nc(CC(=O)O)c4ccccc43)C2)s1 [Compound I-178] |
| < 100 | < 100 | – | – | COc1ccc(S(=O)(=O)N2C[C@@H](C)[C@@H](n3nc(CC(=O)O)c4ccc(F)cc43)C2)s1 [Compound I-179] |
| < 100 | 100 to 5000 | – | – | COc1ccc(S(=O)(=O)N2C[C@@H](C)[C@@H](n3nc(CC(=O)O)c4ccc(C)cc43)C2)s1 [Compound I-180] |
| 100 to 5000 | 100 to 5000 | – | – | CCOc1ccc(S(=O)(=O)N2C[C@@H](C)[C@@H](n3nc(CC(=O)O)c4ccccc43)C2)c(C=NOC)c1 [Compound I-181] |
| < 100 | 100 to 5000 | – | – | CCOc1ccc(S(=O)(=O)N2C[C@@H](C)[C@@H](n3nc(CC(=O)O)c4ccccc43)C2)c(/C=C/COC)c1 [Compound I-182] |
| < 100 | 100 to 5000 | – | – | CCOc1ccc(S(=O)(=O)N2C[C@@H](C)[C@@H](n3nc(CC(=O)O)c4ccccc43)C2)c(CCCOC)c1 [Compound I-183] |
| < 100 | 100 to 5000 | – | – | CCOc1ccc(S(=O)(=O)N2C[C@@H](C)[C@@H](n3nc(CC(=O)O)c4ccccc43)C2)c(COC)c1 [Compound I-184] |
| < 100 | 100 to 5000 | – | – | CCOc1ccc(S(=O)(=O)N2C[C@@H](C)[C@@H](n3nc(CC(=O)O)c4ccccc43)C2)c(/C=C/c2ccccc2)c1 [Compound I-185] |
| < 100 | 100 to 5000 | – | – | CCOc1ccc(S(=O)(=O)N2C[C@@H](C)[C@@H](n3nc(CC(=O)O)c4ccccc43)C2)c(CCc2ccccc2)c1 [Compound I-186] |
| < 100 | 100 to 5000 | – | – | CCOc1ccc(S(=O)(=O)N2C[C@@H](C)[C@@H](n3nc(CC(=O)O)c4ccccc43)C2)c(-c2ccccc2)c1 [Compound I-187] |
| 100 to 5000 | 100 to 5000 | – | – | CCOc1ccc(S(=O)(=O)N2C[C@@H](C)[C@@H](n3nc(CC(=O)O)c4ccccc43)C2)cc1[N+](=O)[O-] [Compound I-188] |
| < 100 | 100 to 5000 | – | – | COCCOc1ccc(S(=O)(=O)N2C[C@@H](C)[C@@H](n3nc(CC(=O)O)c4ccccc43)C2)cc1 [Compound I-189] |
| < 100 | 100 to 5000 | – | – | CC(C)OCCOc1ccc(S(=O)(=O)N2C[C@@H](C)[C@@H](n3nc(CC(=O)O)c4ccccc43)C2)cc1 [Compound I-190] |
| < 100 | 100 to 5000 | – | – | CCOCCOc1ccc(S(=O)(=O)N2C[C@@H](C)[C@@H](n3nc(CC(=O)O)c4ccccc43)C2)cc1 [Compound I-191] |
| < 100 | 100 to 5000 | – | – | C[C@@H]1CN(S(=O)(=O)c2ccc(OCCOc3ccccc3)cc2)C[C@@H]1n1nc(CC(=O)O)c2ccccc21 [Compound I-192] |
| 100 to 5000 | 100 to 5000 | – | – | C[C@@H]1CN(S(=O)(=O)c2ccc(OCCOC(C)(C)C)cc2)C[C@@H]1n1nc(CC(=O)O)c2ccccc21 [Compound I-193] |
| < 100 | 100 to 5000 | – | – | C[C@H]1CN(S(=O)(=O)c2ccc(OC(F)F)cc2)C[C@@H]1n1nc(CC(=O)O)c2ccccc21 [Compound I-194] |
